The record followed here is patent US6518262B1, “22R-hydroxycholesta-8, 14-diene derivatives for the inhibition of meiosis” (Akzo Nobel N.V., priority 1999, dated 2003).

Test [1] has as its system cumulus enclosed oocytes (CEO). The test can be described thus: Oocyte assay, antagonistic testing, inhibition of 22S-hydroxy-FF-Mas induced maturation in cumulus enclosed oocytes (CEO assay). In kind it is cell-based, mice (B6D2-F1, strain C57BL×DBA). Particulars: 22S-hydroxy-FF-Mas 5 μM, control (22S-hydroxy-FF-Mas alone) in brackets. On the procedure: The meiosis inhibiting activity of the 22R-hydroxycholesta-8,14-diene derivatives of the invention is measured in an in vitro oocyte assay as the ability to inhibit the FF-Mas or 22S-hydroxy-FF-Mas induced maturation, in hypoxanthine media, in denuded oocytes (DO) or cumulus enclosed oocytes (CEO), respectively. Natural resumption of meiosis can be mimicked in vitro by addition of FF-Mas or other agonists to the culture medium containing hypoxanthine. The antagonistic activity of the compounds is measured as the ability to inhibit the FF-Mas or 22S-hydroxy-FF-Mas induced oocyte maturation in denuded oocytes or cumulus enclosed oocytes, respectively, in vitro. Ovaries are obtained from immature female mice (B6D2-F1, strain C57BL×DBA). At the age of 19, 20 or 21 days the mice are injected subcutaneously with a single dose of 20 IU follicle stimulating hormone (Humegon, Organon, The Netherlands) in saline. Forty-eight hours after follicle stimulating hormone injection mice are killed by cervical dislocation. The ovaries are removed, freed of extraneous tissue and placed in a multidish containing 0.5 ml preparation medium at 37° C. L-15 Leibovitz medium (Gibco, pH 7.3±0.1) supplemented with bovine serum albumin (3 mg·ml^−1), L-glutamine (0.23 mM), sodium pyruvate (2 mM) and hypoxanthine (4 mM) is used as preparation medium. The antral follicles of the ovaries are punctured under a dissecting microscope using two 27-gauge needles attached to two 1 ml syringes. […] At t=0 the number of oocytes with intact germinal vesicles (GV) or germinal vesicle break-down (GVBD) is counted under an inverted microscope with differential interference contrast equipment. […] At the end of the culture period the number of oocytes with GV or GVBD per group is counted. For statistical analysis the percentage germinal vesicle breakdown is calculated for each group in one block. These percentages are subjected to arcsin transformation, and differences between control and test compounds are analyzed by an ANOVA test for a randomized block design. […]

The test system of test [2] is cumulus enclosed oocytes (CEO). The test can be described thus: Oocyte assay, agonistic testing, cumulus enclosed oocytes (CEO assay). It is filed as cell-based, mice (B6D2-F1, strain C57BL×DBA). Particulars: compound 5 μM, hypoxanthine medium, 22 hours culture, control value in brackets. An excerpt: Oocytes arrested in meiosis contain diffused chromosomes which are surrounded by an intact nuclear envelope known as the germinal vesicle (GV). Upon reinitiation of meiosis by the midcycle gonadotropin surge, the chromosomes recondense and the GV breaks down (GVBD). In vivo, the oocyte is exposed to hypoxanthine (HX), which maintains the oocyte arrested in the meiotic prophase. This meiotic arrest can be mimicked in vitro by addition of hypoxanthine to the culture medium. The agonistic activity of meiosis activating substances is measured as the ability to overcome the hypoxanthine maintained meiotic arrest in denuded oocytes (DO) or cumulus enclosed oocytes (CEO), i.e. as the ability to induce meiotic resumption in vitro.
Ovaries are obtained from immature female mice (B6D2-F1, strain C57BL×DBA). At the age of 19, 20 or 21 days the mice are injected subcutaneously with a single dose of 20 IU follicle stimulating hormone (Humegon, Organon, The Netherlands) in saline.
Forty-eight hours after follicle stimulating hormone injection mice are killed by cervical dislocation. The ovaries are removed, freed of extraneous tissue and placed in a multidish containing 0.5 ml preparation medium at 37° C. L-15 Leibovitz medium (Gibco, pH 7.3±0.1) supplemented with bovine serum albumin (3 mg·ml^−1), L-glutamine (0.23 mM), sodium pyruvate (2 mM) and hypoxanthine (4 mM) is used as preparation medium. […]
The oocyte assay is performed in 3 blocks, each block represents the ovaries of one mouse (randomized block design). […] At t=0 the number of oocytes with intact germinal vesicles (GV) or germinal vesicle break-down (GVBD) is counted under an inverted microscope with differential interference contrast equipment. […] At the end of the culture period the number of oocytes with GV or GVBD per group is counted. For statistical analysis the percentage germinal vesicle breakdown is calculated for each group in one block. These percentages are subjected to arcsin transformation, and differences between control and test compounds are analyzed by an ANOVA test for a randomized block design. […]

With `CC(C)CC[C@@H](O)[C@@H](C)[C@H]1CC=C2C3=C(CC[C@@]21C)[C@@]1(C)CC[C@H](O)C(C)(C)[C@@H]1CC3` [Example 1, (3β,5α,20S,22R)-4,4-Dimethylcholesta-8,14-diene-3,22-diol], the “% GVBD CEO assay exp.” value in test [1] (compound tested 5 M) was 10(93)^3%.
Turning to `CC(C)=CC[C@@H](O)[C@@H](C)[C@H]1CC=C2C3=C(CC[C@@]21C)[C@@]1(C)CC[C@H](O)C(C)(C)[C@@H]1CC3` [Example 2, (3β,5α,20S,22R)-4,4-Dimethylcholesta-8,14,24-triene-3,22-diol], the “% GVBD CEO assay exp.” value is 2(2) % in test [2] and 0(84)^4% in test [1].
